Assay results published in patent publication US20100056516A1 (priority 2006, published 2010).
Read-outs that look alike come from different tables or passages of the source.

Key:
[1] = test system: HXB2 virus; assay: microbe, parasite or virus in culture; type: cell-based, HIV
Summary of the method: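 HXB2 virus used to infect HeLa P4-2 cells in a single-cycle format; inhibition of acute infection is measured.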

[2] = molecular target: HIV integrase (Human immunodeficiency virus type 1 group M subtype B, UniProt P04585); assay: integrase strand transfer assay (STA); type: biochemical
[3] = molecular target: HIV-1 reverse transcriptase (RNase H) (Human immunodeficiency virus type 1 group M subtype B, UniProt P04585); assay: ASH assay: RNase H mediated RNA cleavage (ECL format, BioVeris M384); type: biochemical
Experimental: Potency of a substance as an RNase H inhibitors can be determined by measuring its ability prevent RNase H catalyzed cleavage of the RNA strand in a RNA/DNA hybrid duplex substrate. RNase H activity is measured using a substrate generated by annealing the oligoribo-nucleotide 5′-rCrCrUrCrUrCrArArArArArCrArGrGrArGrCrArGrArArArGrArCrArArG (SEQ ID NO:1) to the oligodeoxyribonucleotide 5′-Biotin-[…] (SEQ ID NO:2). […] (SEQ ID NO:3). The resulting double-stranded duplex DNA product is quantitated in an ALPHA screen format using [streptavidin- and anti-fluorescein-coated beads (Packard Bioscience) following the manufacturer's guidelines and reading on a Fusion AlphaScreen instrument. Alternatively, the released 5′-Biotinylated DNA is annealed to a complementary oligodeoxyribonucleotide: 5′-ruthenium-[…] (SEQ ID NO:3). The resulting double-stranded duplex DNA product is quantitated in an ECL screen format using Dynabeads M280 coated with streptavidin (BioVeris Corporation) following the manufacturer's guidelines and reading on a BioVeris M384 Analyzer.

[4] = test system: HeLa P4-2 cell line
From the text: The HeLa P4-2 cell line used in the single cycle HIV infectivity Assay B of Example 270 was also used to determine compound cytotoxicity in the absence of viral infection.

[5] = Human immunodeficiency virus 1, HXB2, HeLaP4-2, read-out: SCIA-B (IC50, μM)
[6] = Human immunodeficiency virus 1, HXB2, HeLaP4-2, read-out: antiviral IC50 (SCIA-B)
[7] = IC50 in the STA assay, integrase strand transfer
[8] = STA (IC50, μM), integrase strand-transfer assay, Example 269
[9] = cytotoxicity test B, Alamar Blue, HeLa P4-2 cells, no virus, tested up to 100 micromolar
[10] = integrase strand transfer, read-out: IC50 in the STA assay
[11] = integrase strand-transfer assay, Example 269, read-out: STA (IC50)
[12] = RNase H mediated RNA cleavage assay, Example 269, read-out: ASH (IC50)

SMILES	IC50 [1, 5]	IC50 [1, 6]	IC50 [2, 7]	IC50 [2, 8]	IC50 [3]	Cytotoxicity (LD50, μM) ([4]; human)	Cytotoxicity (LD50, μM) [4, 9]	IC50 [2, 10]	IC50 [2, 11]	IC50 [3, 12]
CN(C)CCC(Nc1cc(=O)n(O)c2ncccc12)c1ccccc1 (stereo not drawn) [Example 158, 4-{[3-(dimethylamino)-1-phenylpropyl]amino}-10hydroxy-1,8-naphthyridin-2(1H-one)]	0.24 µM	< 100 µM	< 50 µM	6.5 µM	360 nM	16 µM	–	–	–	–
NCc1cccc(-c2cc(=O)n(O)c3ncccc23)c1 [Example 172, 4-[3-(aminomethyl)phenyl]-1-hydroxy-1,8-naphthyridin-2(1H)-one]	0.26 µM	< 100 µM	< 50 µM	0.22 µM	140 nM	5.5 µM	–	–	–	–
C[C@H](Nc1cc(=O)n(O)c2ncccc12)c1ccccc1 [Example 124, 1-hydroxy-4-{[(1S)-1-phenylethyl]amino}-1,8-naphthyridin-2(1H)-one]	0.16 µM	< 100 µM	< 50 µM	0.66 µM	230 nM	50 µM	–	–	–	–
O=c1cc(Nc2ccc(-c3ccccc3)cc2)c2cccnc2n1O [Example 106, 4-(Biphenyl-4-ylamino)-1-hydroxy-1,8-naphthyridin-2(1H)-one]	0.43 µM	< 100 µM	< 50 µM	0.22 µM	88 nM	12 µM	–	–	–	–
NCc1ccccc1CNc1cc(=O)n(O)c2ncccc12 [Example 163, 4-{[2-(aminomethyl)benzyl]amino}-1-hydroxy-1,8-naphthyridin-2 (1H-one)]	0.14 µM	< 100 µM	> 50 µM	> 50 µM	180 nM	50 µM	–	–	–	–
O=C(NC1CCN(Cc2ccccc2)CC1)c1c(O)c2cccnc2n(O)c1=O.O=C(O)C(F)(F)F [Example 21, N-(1-Benzylpiperidin-4-yl)-1,4-dihydroxy-2-oxo-1,2-dihydro-1,8-naphthyridine-3-carboxamide, trifluoro-acetic acid salt]	0.47 µM	< 100 µM	< 50 µM	0.25 µM	180 nM	–	>100 µM	–	–	–
CN1CCN(Cc2cccc(CNc3cc(=O)n(O)c4ncccc34)c2)CC1 [Example 150, 1-hydroxy-4-({3-[(4-methyl-1-piperazinyl)methyl]benzyl}amino)-1,8-naphthyridin-2(1H-one)]	0.07 µM	< 100 µM	< 50 µM	1.7 µM	150 nM	14 µM	–	–	–	–
O=c1cc(N2CCc3ncccc3C2)c2cccnc2n1O [Example 123, 4-(7,8-dihydro-1,6-naphthyridin-6(5H)-yl)-1-hydroxy-1,8-naphthyridin-2(1H)-one]	0.42 µM	< 100 µM	–	–	–	–	8.7 µM	< 50 µM	2.4 µM	110 nM
NCc1ccc(-c2ccc(-c3c(-c4ccccc4)c(=O)n(O)c4ncc(F)cc34)cc2)cc1 [Example 242, 4-[4′-(aminomethyl)biphenyl-4-yl]-6-fluoro-1-hydroxy-3-phenyl-1,8-naphthyridin-2-(1H)-one]	0.25 µM	< 100 µM	< 50 µM	7.4 µM	180 nM	310 µM	–	–	–	–
NCc1cccc(-c2cccc(Cc3cc(=O)n(O)c4ncccc34)c2)c1 [Example 231, 4-{[3′-(aminomethyl)biphenyl-3-yl]methyl}-1-hydroxy-1,8-naphthyridin-2(1 H)-one]	0.29 µM	< 100 µM	–	–	–	10 µM	–	< 50 µM	1.1 µM	340 nM
CNC(=O)c1c(O)c2cccnc2n(O)c1=O [Example 24, 1,4-Dihydroxy-N-methyl-2-oxo-1,2-dihydro-1,8-naphthyridine-3-carboxamide]	0.22 µM	< 100 µM	< 50 µM	0.55 µM	180 nM	>100 µM	–	–	–	–
O=c1cc(NCc2ccccn2)c2cccnc2n1O [Example 149, 1-hydroxy-4-[(2-pyridinylmethyl)amino]-1,8-naphthyridin-2(1H-one)]	0.06 µM	< 100 µM	< 50 µM	0.7 µM	140 nM	5.2 µM	–	–	–	–
O=c1c(Cc2ccccc2)c(O)c2cc(Cc3ccccc3)cnc2n1O [Example 66, 3,6-Dibenzyl-l,4-dihydroxy-1,8-naphthyridin-2(1H)-one]	0.38 µM	< 100 µM	–	–	–	34 µM	–	< 50 µM	0.02 µM	490 nM
O=c1c(-c2cccc(C(F)(F)F)c2)c(O)c2cccnc2n1O [Example 28, 1,4-Dihydroxy-3-[3-(trifluoromethyl)phenyl]-1,8-naphthyridin-2(1H)-one]	0.22 µM	< 100 µM	–	–	–	>100 µM	–	< 50 µM	0.26 µM	120 nM
O=c1c(-c2ccccc2)c(O)c2cc(F)cnc2n1O [Example 48, 6-Fluoro-1,4-dihydroxy-3-phenyl-1,8-naphthyridin-2(1H)-one]	0.14 µM	< 100 µM	–	–	–	31 µM	–	< 50 µM	0.023 µM	200 nM
O=c1cc(NC2CCc3ccccc32)c2cccnc2n1O (stereo not drawn) [Example 134, 4-(2,3-dihydro-1H-inden-1-ylamino)-1-hydroxy-1,8-naphthyridin-2(1H)-one]	0.034 µM	< 100 µM	< 50 µM	0.36 µM	91 nM	23 µM	–	–	–	–
COc1ccc(CNc2cc(=O)n(O)c3ncccc23)cc1 [Example 140, 1-hydroxy-4-[(4-methoxybenzyl)amino]-1,8-naphthyridin-2(1H-one)]	0.09 µM	< 100 µM	< 50 µM	0.22 µM	110 nM	5 µM	–	–	–	–
